Each structure is given as a SMILES string. pIC50: −log10 of the molar value. Read-outs that look alike come from different tables or passages of the source. A value given as a limit tells only on which side of the number the result lay.

Assay [1] concerns A549 (human lung carcinoma cell line). The experiment in a line: Glo assay of A549 cells (Table 3; ProteasomeGlo plating scheme). Conditions: Homo sapiens; for pIC50: A549 cells, read-out: PGLo A549. It is filed as cell-based. Summed up: (§1)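 After acoustic compound transfer, plates incubate 105 min (37° C., 5% CO2). Proteasome-Glo reagent containing Suc-LLVY-Glo substrate is added, plates are shaken, then luminescence is measured after 10-15 min to derive IC50 [nM]. Staurosporine and DMSO serve as controls.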

Assay [2] deals with Karpas cells. The experiment in a line: Glo assay of Karpas cells (Table 3; ProteasomeGlo plating scheme). The format is cell-based. Conditions: read-out: Pglo Karpas. In a few lines:
as §1

Assay [3] relates to B-cells isolated from PBMC's. In words: Chymotrypsin-like ProteasomeGlo assay in B-cells isolated from PBMCs. The format is cell-based, human. The following applies: Homo sapiens; B-cells isolated from PBMC's; read-out: Pglo B-Cell. In a few lines: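 Human B-cells were negatively isolated from buffy-coat PBMCs by density gradient, RBC lysis and Miltenyi magnetic separation. Cells were plated and compounds added by acoustic transfer after 1:100 dilution, with DMSO controls and medium-only wells. Chymotrypsin-like proteasome activity was read by luminescent ProteasomeGlo to derive IC50.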

Consider `CCC(C(=O)N[C@H]1CC(=O)N2CCCC(CCOc3ccc(C)c(c3)CNC(=O)[C@H](CCc3ccccc3)NC1=O)C2)c1ccc(OC)c(OC)c1` (stereo partly drawn) [Compound 64, 2-(3,4-dimethoxyphenyl)-N-((9S,12S)-5^4-methyl-8,11,14-trioxo-9-phenethyl-4-oxa-7,10-diaza-1(3,1)-piperidina-5(1,3)-benzenacyclotetradecaphane-12-yl)butanamide], for which the pIC50 in assay [1], in assay [2] and in assay [3] was over 7.00 each time.
For `Cc1ccc2cc1CNC(=O)[C@H](CCc1ccccc1)NC(=O)[C@H](NC(=O)OCc1ccccc1)CC(=O)N1CCC[C@H](CCO2)C1` [Compound 291, benzyl ((13R,9S,12R)-5^4-methyl-8,11,14-trioxo-9-phenethyl-4-oxa-7,10-diaza-1(3,1)-piperidina-5(1,3)-benzenacyclotetradecaphane-12-yl)carbamate], the pIC50 in assay [1] is 5.30 to 6.00.
In the case of `Cc1ccc2cc1CNC(=O)[C@H](CCc1ccccc1)NC(=O)[C@@H](NC(=O)OCc1ccccc1)CC(=O)N1CCC[C@H](CCO2)C1` [Compound 292, benzyl ((13R,9S,12S)-5^4-methyl-8,11,14-trioxo-9-phenethyl-4-oxa-7,10-diaza-1(3,1)-piperidina-5(1,3)-benzenacyclotetradecaphane-12-yl)carbamate], the pIC50 in assay [1] was over 7.00.
Regarding `Cc1ccc2cc1CNC(=O)[C@H](CCc1ccccc1)NC(=O)[C@@H](NC(=O)OCC1(C)COC1)CC(=O)N1CCCC(CCO2)C1` (stereo partly drawn) [Compound 293, (3-methyloxetan-3-yl)methyl ((9S,12S)-5^4-methyl-8,11,14-trioxo-9-phenethyl-4-oxa-7,10-diaza-1(3,1)-piperidina-5(1,3)-benzenacyclotetradecaphane-12-yl)carbamate], the IC50 in assay [1] (A549, read-out: PGLo A549 [nM]) was under 100 nM.
In the case of `CC(=O)N[C@H]1CC(=O)N2CCCC(CCOc3ccc(C)c(c3)CNC(=O)C(c3cnn(Cc4ccccc4)c3)NC1=O)C2` (stereo partly drawn) [Compound 565, N-((12S)-9-(1-benzyl-1H-pyrazol-4-yl)-5^4-methyl-8,11,14-trioxo-4-oxa-7,10-diaza-1(3,1)-piperidina-5(1,3)-benzenacyclotetradecaphane-12-yl)acetamide], the pIC50 in assay [1] was over 7.00.
